# Laboratory results from patent US20250011299A1, “PYRIDAZINYL AMINO DERIVATIVES AS ALK5 INHIBITORS” (CHIESI FARMACEUTICI S.P.A., priority 2021, published 2025).
# Where “and” joins values, the source holds several entries; their conditions need not be identical. Identical values can stand only once.
# Target: T1, human ALK5 (Homo sapiens, UniProt P36897)
# T1 construct: human ALK5 (recombinant TGF β1 N-term GST-tagged, 80-end); GST (N); purchased
# T1 sequence (P36897 80-503 limits assumed): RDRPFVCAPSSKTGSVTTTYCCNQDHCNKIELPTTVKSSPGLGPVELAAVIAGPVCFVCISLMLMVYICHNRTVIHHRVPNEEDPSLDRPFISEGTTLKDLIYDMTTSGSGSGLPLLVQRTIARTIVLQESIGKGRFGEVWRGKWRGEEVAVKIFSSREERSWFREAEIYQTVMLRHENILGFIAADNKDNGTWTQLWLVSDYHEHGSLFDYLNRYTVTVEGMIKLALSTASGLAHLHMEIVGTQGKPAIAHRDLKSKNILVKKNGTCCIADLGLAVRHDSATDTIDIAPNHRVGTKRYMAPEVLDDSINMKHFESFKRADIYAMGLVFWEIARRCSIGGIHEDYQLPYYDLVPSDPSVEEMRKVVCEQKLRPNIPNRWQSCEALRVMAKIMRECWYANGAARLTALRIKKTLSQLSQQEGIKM
# Experiment: ADP-GLO Kinases assay of ALK5 enzymatic activity
# Type: biochemical
# Conditions: purified recombinant human ALK5, TGFβ1 peptide substrate, pIC50 converted to pKi by Cheng-Prusoff, high ATP protocol (15 μM) for very potent compounds, 25° C.
# In short: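 Purified ALK5 preincubated 15 min with compound, then reacted with substrate and ATP; ADP formed read by ADP-Glo luminescence after 120 min or 60 min reaction, all steps at 25° C. 11-point concentration-response; pIC50 converted to pKi via Cheng-Prusoff.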
row,Structure (SMILES),Ki
1,"CN1CCN(CCC(=O)Nc2cc(Nc3cc(-c4cc(Cl)ccc4F)nnc3N(C)C)ccn2)CC1 [Example 30, N-(4-{[6-(5-chloro-2-fluorophenyl)-3-(dimethylamino)pyridazin-4-yl]amino}pyridin-2-yl)-3-(4-methylpiperazin-1-yl)propanamide]",≤ 0.1 nM
2,"COCCOc1nnc(-c2cc(Cl)ccc2F)cc1Nc1ccnc(NC(=O)CCN2CCN(C)CC2)c1 [Example 31, N-(4-{[6-(5-chloro-2-fluorophenyl)-3-(2-methoxyethoxy)pyridazin-4-yl]amino}pyridin-2-yl)-3-(4-methylpiperazin-1-yl)propanamide]",≤ 0.1 nM
3,"COCCOc1nnc(-c2cc(Cl)ccc2F)cc1Nc1ccnc2cc(OCCN3CCN(C)CC3)ccc12 [Example 32, N-[6-(5-chloro-2-fluorophenyl)-3-(2-methoxyethoxy)pyridazin-4-yl]-7-[2-(4-methylpiperazin-1-yl)ethoxy]quinolin-4-amine]",≤ 0.1 nM
4,"COCCOc1nnc(-c2cc(Cl)ccc2F)cc1Nc1ccnc(NC(=O)CCN2CCN(CC(F)(F)F)CC2)c1 [Example 33, N-(4-{[6-(5-chloro-2-fluorophenyl)-3-(2-methoxyethoxy)pyridazin-4-yl]amino}pyridin-2-yl)-3-[4-(2,2,2-trifluoroethyl)piperazin-1-yl]propanamide]",≤ 0.1 nM
5,"COCCOc1nnc(-c2cc(Cl)ccc2F)cc1Nc1ccnc(NC(=O)CCN2CCOCC2)c1 [Example 34, N-(4-{[6-(5-chloro-2-fluorophenyl)-3-(2-methoxyethoxy)pyridazin-4-yl]amino}pyridin-2-yl)-3-(morpholin-4-yl)propanamide]",≤ 0.1 nM
6,"COc1ccc2c(Nc3cc(-c4cc(Cl)ccc4F)nnc3OCCN3CCN(C)CC3)ccnc2c1 [Example 35, N-[6-(5-chloro-2-fluorophenyl)-3-[2-(4-methylpiperazin-1-yl)ethoxy]pyridazin-4-yl]-7-methoxyquinolin-4-amine]",0.126 to 0.316 nM
7,"CN1CCN(CCOc2nnc(-c3cc(Cl)ccc3F)cc2Nc2ccnc(NC(=O)C3CC3)c2)CC1 [Example 36, N-(4-{[6-(5-chloro-2-fluorophenyl)-3-[2-(4-methylpiperazin-1-yl)ethoxy]pyridazin-4-yl]amino}pyridin-2-yl)cyclopropanecarboxamide]",≤ 0.1 nM
8,"CN1CCN(CCOc2nnc(-c3cc(Cl)ccc3F)cc2Nc2ccnc3[nH]ccc23)CC1 [Example 37, 6-(5-chloro-2-fluorophenyl)-3-[2-(4-methylpiperazin-1-yl)ethoxy]-N-{1H-pyrrolo[2,3-b]pyridin-4-yl}pyridazin-4-amine]",0.398 to 3.16 nM
9,"CN(C)CCOc1nnc(-c2cc(Cl)ccc2F)cc1Nc1ccnc(NC(=O)C2CC2)c1 [Example 38, N-(4-{[6-(5-chloro-2-fluorophenyl)-3-[2-(dimethylamino)ethoxy]pyridazin-4-yl]amino}pyridin-2-yl)cyclopropanecarboxamide]",≤ 0.1 nM
10,"COc1ccc2c(Nc3cc(-c4cc(Cl)ccc4F)nnc3OCCN(C)C)ccnc2c1 [Example 39, N-[6-(5-chloro-2-fluorophenyl)-3-[2-(dimethylamino)ethoxy]pyridazin-4-yl]-7-methoxyquinolin-4-amine]",0.398 to 3.16 nM
11,"CN(C)CCOc1nnc(-c2cc(Cl)ccc2F)cc1Nc1ccnc(NC(=O)CCN2CCOCC2)c1 [Example 40, N-(4-{[6-(5-chloro-2-fluorophenyl)-3-[2-(dimethylamino)ethoxy]pyridazin-4-yl]amino}pyridin-2-yl)-3-(morpholin-4-yl)propanamide]",0.126 to 0.316 nM and 0.398 to 3.16 nM
12,"CN(C)CCOc1nnc(-c2cc(Cl)ccc2F)cc1Nc1ccnc2[nH]ccc12 [Example 41, 6-(5-chloro-2-fluorophenyl)-3-[2-(dimethylamino)ethoxy]-N-{1H-pyrrolo[2,3-b]pyridin-4-yl}pyridazin-4-amine]",0.398 to 3.16 nM
13,"CN(C)CCOc1nnc(-c2cc(Cl)ccc2F)cc1Nc1ccnc2[nH]ncc12 [Example 42, 6-(5-chloro-2-fluorophenyl)-3-[2-(dimethylamino)ethoxy]-N-{1H-pyrazolo[3,4-b]pyridin-4-yl}pyridazin-4-amine]",0.398 to 3.16 nM
14,"Nc1cc(Nc2cc(-c3cc(Cl)ccc3F)nnc2OCCO)ccn1 [Example 43, 2-({4-[(2-aminopyridin-4-yl)amino]-6-(5-chloro-2-fluorophenyl)pyridazin-3-yl}oxy)ethan-1-ol]",0.398 to 3.16 nM
15,"CN1CC(COc2nnc(-c3cc(Cl)ccc3F)cc2Nc2ccnc(NC(=O)C3CC3)c2)C1 [Example 44, N-(4-{[6-(5-chloro-2-fluorophenyl)-3-[(1-methylazetidin-3-yl)methoxy]pyridazin-4-yl]amino}pyridin-2-yl)cyclopropanecarboxamide]",0.126 to 0.316 nM
16,"CS(=O)(=O)NCCOc1nnc(-c2cc(Cl)ccc2F)cc1Nc1ccnc(N)c1 [Example 45, N-[2-({4-[(2-aminopyridin-4-yl)amino]-6-(5-chloro-2-fluorophenyl)pyridazin-3-yl}oxy)ethyl]methanesulfonamide]",≤ 0.1 nM
17,"COc1nnc(-c2cc(Cl)ccc2F)cc1Nc1ccnc2cc(OCCN3CCN(C)CC3)ccc12 [Example 46, N-[6-(5-chloro-2-fluorophenyl)-3-methoxypyridazin-4-yl]-7-[2-(4-methylpiperazin-1-yl)ethoxy]quinolin-4-amine]",≤ 0.1 nM
18,"COc1nnc(-c2cc(Cl)ccc2F)cc1Nc1ccnc(NC(=O)CCN2CCN(C)CC2)c1 [Example 47, N-(4-{[6-(5-chloro-2-fluorophenyl)-3-methoxypyridazin-4-yl]amino}pyridin-2-yl)-3-(4-methylpiperazin-1-yl)propanamide]",≤ 0.1 nM

# The next lines start with the values.
row,Ki,Structure (SMILES)
1,0.126 to 0.316 nM,"COc1nnc(-c2cc(Cl)ccc2F)cc1Nc1ccnc(N)c1 [Example 48, N4-[6-(5-chloro-2-fluorophenyl)-3-methoxypyridazin-4-yl]pyridine-2,4-diamine]"
2,0.398 to 3.16 nM,"Nc1cc(Nc2cc(-c3cc(Cl)ccc3F)nnc2OCC(F)(F)F)ccn1 [Example 49, N4-[6-(5-chloro-2-fluorophenyl)-3-(2,2,2-trifluoroethoxy)pyridazin-4-yl]pyridine-2,4-diamine]"
3,≤ 0.1 nM,"CN1CCN(CCC(=O)Nc2cc(Nc3cc(-c4cc(Cl)ccc4F)nnc3OCC(F)(F)F)ccn2)CC1 [Example 50, N-(4-{[6-(5-chloro-2-fluorophenyl)-3-(2,2,2-trifluoroethoxy)pyridazin-4-yl]amino}pyridin-2-yl)-3-(4-methylpiperazin-1-yl)propanamide]"
4,≤ 0.1 nM,"CN1CCN(CCOc2ccc3c(Nc4cc(-c5cc(Cl)ccc5F)nnc4OCC(F)(F)F)ccnc3c2)CC1 [Example 51, N-[6-(5-chloro-2-fluorophenyl)-3-(2,2,2-trifluoroethoxy)pyridazin-4-yl]-7-[2-(4-methylpiperazin-1-yl)ethoxy]quinolin-4-amine]"
5,0.126 to 0.316 nM,"CN1CCN(CCC(=O)Nc2cc(Nc3cc(-c4cc(Cl)ccc4F)nnc3OCC(F)F)ccn2)CC1 [Example 52, N-(4-{[6-(5-chloro-2-fluorophenyl)-3-(2,2-difluoroethoxy)pyridazin-4-yl]amino}pyridin-2-yl)-3-(4-methylpiperazin-1-yl)propanamide]"
6,0.398 to 3.16 nM,"Nc1cc(Nc2cc(-c3cc(Cl)ccc3F)nnc2OCC(F)F)ccn1 [Example 53, N4-[6-(5-chloro-2-fluorophenyl)-3-(2,2-difluoroethoxy)pyridazin-4-yl]pyridine-2,4-diamine]"
7,≤ 0.1 nM,"O=C(Nc1cc(Nc2cc(-c3cc(Cl)ccc3F)nnc2OCCN2CCCC2)ccn1)C1CC1 [Example 54, N-(4-{[6-(5-chloro-2-fluorophenyl)-3-[2-(pyrrolidin-1-yl)ethoxy]pyridazin-4-yl]amino}pyridin-2-yl)cyclopropanecarboxamide]"
8,0.126 to 0.316 nM,"CSCCCOc1nnc(-c2cc(Cl)ccc2F)cc1Nc1ccnc(N)c1 [Example 55, N4-[6-(5-chloro-2-fluorophenyl)-3-[3-(methylsulfanyl)propoxy]pyridazin-4-yl]pyridine-2,4-diamine]"
9,0.398 to 3.16 nM,"CS(=O)(=O)CCCOc1nnc(-c2cc(Cl)ccc2F)cc1Nc1ccnc(N)c1 [Example 56, N4-[6-(5-chloro-2-fluorophenyl)-3-(3-methanesulfonylpropoxy)pyridazin-4-yl]pyridine-2,4-diamine]"
10,0.398 to 3.16 nM,"C[S+]([O-])CCCOc1nnc(-c2cc(Cl)ccc2F)cc1Nc1ccnc(N)c1 (stereo not shown) [Example 57, N4-[6-(5-chloro-2-fluorophenyl)-3-(3-methanesulfinylpropoxy)pyridazin-4-yl]pyridine-2,4-diamine]"
11,0.398 to 3.16 nM,"C[N+](C)(C)CCCOc1nnc(-c2cc(Cl)ccc2F)cc1Nc1ccnc(NC(=O)C2CC2)c1 [Example 58, (3-{[6-(5-chloro-2-fluorophenyl)-4-[(2-cyclopropaneamidopyridin-4-yl)amino]pyridazin-3-yl]oxy}propyl)trimethylazanium chloride]"
12,≤ 0.1 nM,"O=C(CN1CCNCC1)Nc1cc(Nc2cc(-c3cc(Cl)ccc3F)nnc2SCCO)ccn1 [Example 60, N-(4-{[6-(5-chloro-2-fluorophenyl)-3-[(2-hydroxyethyl)sulfanyl]pyridazin-4-yl]amino}pyridin-2-yl)-2-(piperazin-1-yl)acetamide]"
13,≤ 0.1 nM,"O=C(CN1CCCNCC1)Nc1cc(Nc2cc(-c3cc(Cl)ccc3F)nnc2SCCO)ccn1 [Example 61, N-(4-{[6-(5-chloro-2-fluorophenyl)-3-[(2-hydroxyethyl)sulfanyl]pyridazin-4-yl]amino}pyridin-2-yl)-2-(1,4-diazepan-1-yl)acetamide]"
